Converted amounts (≈) assume the structure as drawn. Where two headings read alike, the source gives them in different places.
Assays:
[1] = system: carrageenan-induced paw edema; experiment: Carrageenan-induced paw edema (in vivo anti-inflammatory activity); design: species or system BALB/C albino mice; unit not given beside the values; settings: 10 mg/kg, mice, n = 5
Experimental: At 7–8 weeks old, male BALB/C albino mice (29–35 g), were purchased from The National Institute of Health (NIH), Islamabad, Pakistan. Five animals were housed per group and placed in a controlled temperature and humidity-controlled room (22 °C and 66 ± 5%, respectively) in a 12 h light–dark cycle and provided with water and food ad libitum. Ethical approval was taken from the bio-ethical committee of Quaid-I-Azam University (Approval No. BEC-FBS-QAU2018-119) and all protocols were conducted following the Ethical Guide to the Code of Practice for the Housing and Care of Animals Act 1986 (ARRIVE (Animal Research: Reporting In Vivo Experiments) guidelines). The anti-inflammatory activity of the synthesized compounds was evaluated by using the carrageenan-induced rat paw edema assay. To determine the dose response of tetrahydroquinoline derivatives, animals were first given a dose of 0.1, 1 and 10 mg/kg against 100 µL carrageenan (1% solution in normal saline)/paw. Treatment was given 60 min before carrageenan injection. Readings were taken at 4 h post carrageenan injection. The in vivo anti-inflammatory activity was performed following the procedure described by Koksal, et al. in 2017. Paw edema was induced by injecting 100 µL of 1% sterile carrageenan solution into the right hind paw of mice. Synthesized compounds (10 mg/kg), vehicle (saline with 2% DMSO) and drug (acetylsalicylic acid, ASA 10 mg/kg) were administered to the mice orally by gastric intubation 60 min before injecting carrageenan into the right hind paw. The decrease in edema was measured by vernier calipers every 2 h.

[2] = DPPH free radical scavenging assay; settings: mean ± SEM, n = 3; for IC50 (DPPH radical scavenging): concentration to scavenge 50% of the DPPH radicals
Experimental: The % free radical scavenging activity (%FRSA) of the synthetic compounds was evaluated by the discoloration of an unstable DPPH reagent to the stable yellow-colored 2,2-diphenyl-1-picrylhydrazine molecule by accepting one electron from a donor antioxidant; the mechanism is shown in Scheme 2.
The % FRSA (free radical scavenging activity) of the synthetic compounds was determined by using the method of Tai et al. with slight modifications. The antioxidant potential was determined by detecting the capacity of the synthetic compounds to quench the DPPH free radicals. The synthetic compounds were taken in a 96-well plate at three-fold concentrations of 200 µg/mL, 66.6 µg/mL, 22.2 µg/mL and 7.4 µg/mL. DPPH free radicals were added to entire wells to make up the volume up to 200 µL. DMSO and ascorbic acid were taken as negative and positive controls, respectively. The absorbance was taken at 630nm using a microplate reader (ELx800 BioTek). The percentage of scavenging activity was calculated by the given formula:% scavenging activity = (1 − Abs/Abc) × 100
Abs = sample’s absorbance; Abc = control’s absorbance.

[3] = system: Hep-2C cells; experiment: MTT assay against Hep-2C cells; type: cell-based, Human; settings: read-out: IC50 (Mean ± SEM) Hep-2C Cells
Experimental: Hep-2C cell line experiments were performed in the Immunology Lab of the National Institute of Health (NIH), Islamabad, Pakistan. Human cervix carcinoma cells Hep-2C (ATCC HB-8065) were cultured in Dulbecco’s modified Eagle’s medium (DMEM), comprising 10% fetal calf serum (10% FCS) and supplemented with 2 mM L-glutamine, 100 U/mL penicillin, 100 µg/mL streptomycin and 1 mM Na pyruvate, at 37 °C in a humidified 5% CO2 incubator.
The tetrazolium dye 3-(4, 5-dimethyl thiazolyl-2)-2, 5-diphenyltetrazolium bromide (MTT) was used to assess the cytotoxic potential of the test compounds. In living cells, MTT is reduced into its insoluble purple product formazan, which is measured spectrophotometrically.
Hep-2C cells, in a density of 1 × 10^6 (> 90% cell viability), were cultured in a 96-well plate and treated with different concentrations of the test compounds for 24, 48 and 72 h. Ten microliters of MTT (1 mg per mL) were added per well followed by incubation for 4 h. Insoluble formazan crystals were dissolved by adding 100 µL of DMSO. Cells were then incubated for another 2 h. Absorbance was measured at 570 nm by a microplate reader. Untreated Hep-2C cells were taken as controls and DMSO as a negative. % cell viability = (abssample − absblank)/(abscontrol − absblank) × 100

[4] = system: brine shrimp nauplii; experiment: Brine shrimp lethality bioassay; type: in vivo; settings: 24 h, n = 3
Experimental: Brine shrimp eggs were hatched in a shallow rectangular plastic dish and filled with artificial seawater, which was prepared with a commercial salt mixture. In a 96-well plate, 150 µL of artificial seawater was added and 10 nauplii were added into this. Test compounds (400, 200, 100 and 50 µg/mL) were added into each well and the final volume was made up by adding the artificial seawater. The well plate was left uncovered under a lamp. The number of surviving shrimps were counted and recorded after 24 h. The test was repeated in triplicate. […] The percentage mortality (%M) was also calculated by dividing the number of dead nauplii by the total number and then multiplied by 100.

[5] = MTT cytotoxicity against raw macrophages; type: cell-based, albino rats; settings: albino, rat; for viability at 24 h, 1 µM / viability at 24 h, 10 µM / viability at 24 h, 50 µM / viability at 24 h, 100 µM: peritoneal macrophages (raw macrophages), raw macrophages, MTT, read-out: % Cell Viability; for IC50 at 24 h: primary peritoneal macrophages, mean ± SEM, n = 3
Experimental: The % cell viability of the synthetic library was evaluated in vitro by measuring the mitochondrial dehydrogenase activity (MTT test) on raw macrophages.
The cytotoxic potential was assessed by using an MTT 3-(4,5-dimethyl thiazole-2-yl)-2,5- diphenyl tetrazolium bromide assay. Briefly, macrophages were extracted from the peritoneal cavity of albino rats and plated at a density of 1 × 10^6 per well in a 96-well plate and incubated in a 5% CO2 incubator at 37 °C for 24 h. The cells were treated with various concentrations of the test compounds (100 µM, 50 µM, 10 µM and 1 µM) or vehicle alone. The test compounds were first dissolved in DMSO to make a 100 mM stock solution and then further dilutions were made from this stock solution. After 24 h of incubation, 20 µL of MTT (1 mg/mL in normal saline) was added into each well and incubated under the same conditions for 2 h. Mitochondrial succinate dehydrogenase converted MTT in live cells into purple formazan crystals. The formazan crystals were then solubilized in 100 µL DMSO, and the absorbance was measured at 570 nm. The % cell viability was calculated by the following formula; % cell viability = (abssample − absblank)/(abscontrol − absblank) × 100

[6] = system: NO generated by LPS-induced macrophages; experiment: Nitric oxide assay (Griess) in LPS-induced macrophages; type: cell-based, murine; settings: Mus musculus, Macrophage, 18 h, LPS 1 µg/mL, read-out: % NO Production (Mean ± SEM)
Experimental: A Griess reagent, a spectrophotometric determination of nitrite level, was carried out to measure the nitrite level in the conditioned medium of macrophages treated with lipopolysaccharide (LPS). Sodium nitrite (NaNO2) was used as a standard compound for the standard curve (Figure 8). The NO concentrations were obtained using the standard curve equation: y = 0.0083x + 0.0017, R^2 = 0.9999, where y is the absorbance at 540 nm and x is the NO concentration in µM. The inhibitory activity of the tested compounds towards NO generated by LPS-induced macrophages was obtained from the calculated value of x.
The anti-inflammatory effect of the synthesized compounds in murine macrophages was evaluated by using the Griess reaction method, described previously. In brief, 1 × 10^6 were plated in a 96-well plate and incubated in a 5% CO2 incubator at 37 °C for 24 h, pre-treated with different concentrations (100 µM, 50 µM, 10 µM and 1 µM) of synthetic compounds for another 2 h and challenged with LPS (1 µg/mL) for an additional 18 h. Equal volumes of Griess reagent (1% sulphanilamide in 50% phosphoric acid and 0.1% naphthyl ethylenediamine dihydrochloride in distilled water and vortexed) and culture medium were mixed and the absorbance was taken at 540 nm. Lipopolysaccharide (LPS) was taken as a blank and piroxicam was taken as a positive control. A t-test was applied to determine the significance of the results.

Structure (SMILES) | IC50 (DPPH radical scavenging) [2] [µg/mL] | % DPPH Scavenging Activity ([2]; 7.4 µg/mL) [%] | % DPPH Scavenging Activity ([2]; 22.22 µg/mL) [%] | % DPPH Scavenging Activity ([2]; 66.66 µg/mL) [%] | % DPPH Scavenging Activity ([2]; 200 µg/mL) [%] | LD50 ± SEM (brine shrimp lethality) [4] [µg/mL] | viability at 24 h, 1 µM [5] [%] | viability at 24 h, 10 µM [5] [%] | viability at 24 h, 50 µM [5] [%] | viability at 24 h, 100 µM [5] [%] | IC50 at 24 h [5] [µM] | activity at 1 µM [6] [%] | activity at 10 µM [6] [%] | activity at 50 µM [6] [%] | activity at 100 µM [6] [%] | also measured
CC(=O)Oc1ccccc1C(=O)O [Acetyl salicylic acid, reference compound] |  |  |  |  |  |  |  |  |  |  |  |  |  |  |  | Paw thickness ([1]; 0 h after carrageenan injection): 2.14 ± 0.08; Paw thickness ([1]; 2 h after carrageenan injection): 2.26 ± 0.05; Paw thickness ([1]; 4 h after carrageenan injection): 2.32 ± 0.04; Paw thickness ([1]; 6 h after carrageenan injection): 2.39 ± 0.02
O=C1O[C@H]([C@@H](O)CO)C(O)=C1O [Ascorbic Acid, reference compound] | 41.38 ± 0.34 (≈ 235 µM) | 31.35 ± 0.23 | 52.12 ± 0.31 | 76.63 ± 0.19 | 89.01 ± 0.18 |  |  |  |  |  |  |  |  |  |  | 
N.N.[Cl][Pt][Cl] [Cisplatin, reference compound] |  |  |  |  |  |  |  |  |  |  |  |  |  |  |  | IC50 ([3]; 24 h): 19.1 ± 1.06 µM; IC50 ([3]; 48 h): 17.5 ± 1.07 µM; IC50 ([3]; 72 h, listed as cisplatin): 14.6 ± 1.01 µM; IC50 ([3]; 72 h): 14.6 ± 1.01 µM
COc1cccc2c1C(=O)c1c(O)c3c(c(O)c1C2=O)C[C@@](O)(C(=O)CO)C[C@@H]3O[C@H]1C[C@H](N)[C@H](O)[C@H](C)O1 [Doxorubicin, reference compound] |  |  |  |  |  | 124 ± 1.54 | 51 ± 1.34 | 40 ± 0.87 | 33 ± 1.01 | 17 ± 0.83 | 17.1 ± 0.37 |  |  |  |  | 
CN1C(C(=O)Nc2ccccn2)=C(O)c2ccccc2S1(=O)=O [Piroxicam, reference compound] |  |  |  |  |  |  |  |  |  |  |  | 25.4 ± 0.45 | 20.7 ± 0.24 | 16.5 ± 0.41 | 13.4 ± 0.54 | 
O=c1c(O)c(-c2ccc(O)c(O)c2)oc2cc(O)cc(O)c12 [Quercetin, reference compound] | 41.64 ± 1.01 (≈ 138 µM) | 42.34 ± 0.36 | 58.31 ± 0.28 | 69.81 ± 0.17 | 81.43 ± 0.21 |  |  |  |  |  |  |  |  |  |  | 

Now from value to compound, other results behind:

IC50 (DPPH radical scavenging) [2] [µg/mL] | Structure (SMILES) | % DPPH Scavenging Activity ([2]; 7.4 µg/mL) [%] | % DPPH Scavenging Activity ([2]; 22.22 µg/mL) [%] | % DPPH Scavenging Activity ([2]; 66.66 µg/mL) [%] | % DPPH Scavenging Activity ([2]; 200 µg/mL) [%] | LD50 ± SEM (brine shrimp lethality) [4] [µg/mL] | viability at 24 h, 1 µM [5] [%] | viability at 24 h, 10 µM [5] [%] | viability at 24 h, 50 µM [5] [%] | viability at 24 h, 100 µM [5] [%] | IC50 at 24 h [5] [µM] | activity at 1 µM [6] [%] | activity at 10 µM [6] [%] | activity at 50 µM [6] [%] | activity at 100 µM [6] [%] | also measured
35.89 ± 0.33 (≈ 155 µM) | c1ccc2c(c1)CCCN2CN1CCNCC1 [SF6, 1-(Piperazine-1-ylmethyl)-1,2,3,4-tetrahydroquinoline] | 8.81 ± 0.21 | 37.75 ± 0.31 | 50.32 ± 0.18 | 66.61 ± 0.13 | 121.2 ± 1.09 | 91 ± 0.99 | 87 ± 0.82 | 65 ± 0.76 | 60 ± 1.21 | 23.37 ± 0.17 | 77.3 ± 0.62 | 72.33 ± 0.59 | 61.11 ± 0.54 | 52.44 ± 0.49 | 
53.63 ± 0.13 (≈ 246 µM) | CCN(CC)CN1CCCc2ccccc21 [SF11, N-((3,4-dihydroquinolin-1(2H)-yl)methyl)-N-ethylethanamine] | 7.76 ± 0.18 | 15.54 ± 0.09 | 30.9 ± 0.12 | 43.93 ± 0.28 | 200 ± 2.11 | 95 ± 0.91 | 82 ± 0.84 | 62 ± 1.2 | 41 ± 0.83 | 26.4 ± 0.31 | 43 ± 0.66 | 39.8 ± 0.61 | 33.7 ± 0.53 | 25.7 ± 0.44 | 
